Measurements as given in patent publication US20230096978A1, “MOR RECEPTOR AGONIST COMPOUND, PREPARATION METHOD THEREFOR, AND USE THEREOF” (CHENGDU EASTON BIOPHARMACEUTICALS CO., LTD., priority 2020, published 2023).
Where “and” joins values, the source holds several entries; their conditions need not be identical. Equal values may be shown once. Read-outs that look alike come from different tables or passages of the source.

Assays:
[1] = system: thermal radiation tail-flick pain threshold in rats; assay: Rat thermal radiation tail-flick pain threshold test; type: in vivo, SD rats; conditions: 0.7 mg/kg tail vein injection, Mean ± SEM; for Maximum percentage of analgesia (MPE) 0.5 h: 0.5 h after administration, n = 10; for Maximum percentage of analgesia (MPE) 1 h: 1 h after administration; for Maximum percentage of analgesia (MPE) 2 h: 2 h after administration; for Maximum percentage of analgesia (MPE) 3 h: 3 h after administration
Experimental: 1. Test purpose: to measure the effect of each compound sample on the pain threshold of rats by using the rat thermal radiation tail flick method.
Administered via tail vein injection at an equal dose of 0.7 mg/kg;
The rats (SD rats, SPF grade, with body weight of 220-250g, purchased from Beijing Vital River Laboratory Animal Technology Co., Ltd.) were firstly fixed in a special plastic cylinder, so that their tails were exposed and drooped naturally. Test was performed after the animals were quiet. […] The measured time interval was the tail-flick response latency, which is 3 s to 5 s in normal rats, and those with greater than 5 s or less than 3 s were excluded. Then, measurement was made every 5 min, and the mean of three measurements was taken as the basic nociceptive threshold. If the animal stayed more than 10 s under analgesic effect, the irradiation was stopped and 10 s was used as the upper limit of the tail flick latency to avoid burning the skin by the too-long irradiation. After the rats were given a certain dose of the drug, the pain thresholds of the rats were measured at different times.
After the rats were given a certain dose of the drug, the pain threshold of the rats was measured at 0.5 h, 1 h, 2 h, and 3 h. The maximum percentage of analgesia (% MPE) after administration was calculated, of which the calculation formula was as follows: MPE(%)=(pain threshold after administration−pain threshold before administration)/(10s−pain threshold before administration))×100%

[2] = target: T1, DOR (Delta Opioid Receptor) (Homo sapiens, UniProt P41143); assay: cAMP agonistic activity assay, DOR stably transfected cell line; type: cell-based
T1 construct: expressed in transfected cells
Experimental: (§1) 1. Test purpose: to detect the agonistic activity of compound samples utilizing MOR (Mu opioid Receptor), KOR(Kappa opioid receptor), and DOR (Delta Opioid Receptor) stably transfected cell lines and using the established cAMP assay detection platform.
(§2) a. All samples were dissolved with DMSO to a storage concentration of 30 mM.
(§3) b. A sample dilution sequence was prepared on a 384-well LDV plate. The first concentration point is 6 mM, with a 3.162-fold serial dilution and a total of 11 concentration points.
(§4) c. The sample dilution sequence was transferred to an test plate (Corning-3824) using the Echo machine, corresponding to transfer of 50 nL per well.
(§5) d. 50 nL of HPE or ZPE was transferred to the corresponding location of the test plate using the Echo machine.
(§6) 2.2 Test operation of cAMP agonistic activity detection
(§7) a. Assay buffer and stimulation buffer (STB) required for the test were formulated.
(§8) b. 5 μL of STB was firstly added to each well of the test plate (with 50 nL of compound already in the well), and then 5 μL of cell suspension was added thereto.
(§9) c. The test plate was incubated in a constant temperature incubator at 37° C.
(§10) d. A standard concentration curve of cAMP was created. The first concentration point was 2848 nM, with a 4-fold serial dilution and a total of 16 detection concentrations, and each concentration point was in triplicate.
(§11) e. cAMP detection reagent (Cisbio #62AM4PEJ) was added to the sample test plate and cAMP standard concentration test plate. 5 μL of D2 reagent was added first, and then 5 μL of Cryptate reagent was added.
(§12) f. The test plates were read on the Envision after being left for 60 minutes at room temperature.

[3] = system: colonic motility (glass bead expulsion) in mice; assay: Mouse colonic glass bead expulsion time test; type: in vivo; conditions: C57BL/6 mice, 1 mg/kg single tail vein injection, n = 10; for Mean Expulsion Time: beads inserted 20 min after administration, limit 120 min, Mean ± S.E.M.; for Expulsion Time Prolonging Rate (ETPR): relative to solvent control
Experimental: 1. Test purpose: to test the effect of the test compound on the expulsion time of colonic glass beads from mice, and to preliminarily investigate its inhibitory effect on colonic motility.
Administered via tail vein injection at an equal dose of 1 mg/kg;
After 6-7 days of adaptive feeding of C57BL/6 mice, the animals fasted with free access to water for 12-16 hours and then randomly divided into 10 groups, 10 mice per group. Each group employed a single administration via tail vein, and the administration volume was 10 mL/kg. The solvent control group was given a vehicle (normal saline) via tail vein. 20 min after the administration, glass beads preheated to 37° C. with a diameter of 2 mm were pushed into the rectum at a distance of 2 cm through the anus. Timing was immediately started and the animals were placed individually in the observation cage to observe the time for the glass beads to be expulsed (the observation time limit was 120 min). If the glass beads had not been expulsed by the end of the observation period, the animals were euthanized and the rectum was dissected to confirm that the glass beads were still in the intestinal tract.
Colonic Expulsion Rate (CER)=number of animals that successfully expulsed glass beads during the observation period/total number of animals in this group×100%;
Expulsion Time Prolonging Rate (ETPR)=(mean expulsion time of test sample group—mean expulsion time of solvent control group)/mean expulsion time of solvent control group×100%;
Percent Maximum Possible Effect (% Maximum Possible Effect, Percent MPE)=(mean expulsion time of test sample group—mean expulsion time of solvent control group)/(120-mean expulsion time of solvent control group)×100%; Calculation and related statistical processing were performed on the test data using Microsoft Office Excel 2007 and GraphPad Prism software. Unless otherwise specified, the data were shown as mean±standard error (Mean±S.E.M.), and the comparison between groups was performed by one-way ANOVA, and the Dunnett's method was used for pairwise comparison test.

[4] = target: T2, KOR(Kappa opioid receptor) (Homo sapiens, UniProt P41145); assay: cAMP agonistic activity assay, KOR stably transfected cell line; type: cell-based
T2 construct: expressed in transfected cells
Experimental: as §1, §2, §3, §4, §5, §6, §7, §8, §9, §10, §11, §12

MOR (Mu opioid Receptor) = target: T3, MOR (Mu opioid Receptor) (Homo sapiens, UniProt P35372); assay: cAMP agonistic activity assay, MOR stably transfected cell line; type: cell-based; conditions: for EC50 against μ receptor relative to that of TRV130: ratio of EC50 to TRV130
T3 construct: expressed in transfected cells
Experimental: as §1, §2, §3, §4, §5, §6, §7, §8, §9, §10, §11, §12

[5] = Pharmacokinetic test after single tail vein injection; type: in vivo; conditions: SD (Sprague-Dawley), rat, plasma, iv; SD rats, single tail vein injection 2 mg/kg, n = 3
Experimental: 1. Test purpose: to investigate the pharmacokinetic parameters of each compound in the Experimental Example after a single tail vein administration.
Administered via tail vein at an equal dose of 2 mg/kg;
Blood was collected from the jugular vein before administration and 5 min, 10 min, 15 min, 20 min, 30 min, 45 min, 1h, 2h, 4h, 6h, 8h, 24 h after administration. 200 μL of whole blood was taken at each time point and was placed in an anticoagulation tube containing EDTA-K2, and centrifuged at 2000g at a low temperature of 4° C. to separate the plasma. The plasma was transferred to a microcentrifuge tube, and stored in a −80° C. refrigerator for later use.
By establishing a reliable LC/MS/MS analysis method, the blood concentration of each sample was detected, and the pharmacokinetic parameters of each compound were calculated.

[6] = agonistic effect, cAMP assay, δ opioid receptor, read-out: EC50 δ
[7] = agonistic effect, cAMP assay, κ opioid receptor, read-out: EC50 κ
[8] = agonistic effect, cAMP assay, μ opioid receptor, read-out: EC50 μ
[9] = n = 10, listed as positive compound, 0.7 mg/kg

T2 sequence (P41145 whole entry): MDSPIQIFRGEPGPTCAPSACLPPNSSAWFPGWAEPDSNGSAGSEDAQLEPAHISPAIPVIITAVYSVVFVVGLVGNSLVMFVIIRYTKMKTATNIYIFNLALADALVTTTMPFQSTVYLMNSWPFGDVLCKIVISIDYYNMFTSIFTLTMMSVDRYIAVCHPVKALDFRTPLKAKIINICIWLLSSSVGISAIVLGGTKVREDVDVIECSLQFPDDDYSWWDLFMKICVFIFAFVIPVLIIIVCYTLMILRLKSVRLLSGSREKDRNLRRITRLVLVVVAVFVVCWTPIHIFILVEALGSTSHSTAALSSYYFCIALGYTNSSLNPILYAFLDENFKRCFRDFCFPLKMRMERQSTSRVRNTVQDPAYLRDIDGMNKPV
T1 sequence (P41143 whole entry): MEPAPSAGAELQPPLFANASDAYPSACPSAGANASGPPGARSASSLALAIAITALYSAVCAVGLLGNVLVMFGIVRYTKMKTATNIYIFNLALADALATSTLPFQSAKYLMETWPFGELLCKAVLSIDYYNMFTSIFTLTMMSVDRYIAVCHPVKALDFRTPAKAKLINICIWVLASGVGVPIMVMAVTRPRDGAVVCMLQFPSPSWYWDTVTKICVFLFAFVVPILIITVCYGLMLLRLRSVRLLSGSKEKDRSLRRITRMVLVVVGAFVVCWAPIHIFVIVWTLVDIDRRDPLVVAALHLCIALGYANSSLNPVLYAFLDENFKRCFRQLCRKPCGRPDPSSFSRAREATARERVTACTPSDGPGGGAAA
T3 sequence (P35372 whole entry, species assumed): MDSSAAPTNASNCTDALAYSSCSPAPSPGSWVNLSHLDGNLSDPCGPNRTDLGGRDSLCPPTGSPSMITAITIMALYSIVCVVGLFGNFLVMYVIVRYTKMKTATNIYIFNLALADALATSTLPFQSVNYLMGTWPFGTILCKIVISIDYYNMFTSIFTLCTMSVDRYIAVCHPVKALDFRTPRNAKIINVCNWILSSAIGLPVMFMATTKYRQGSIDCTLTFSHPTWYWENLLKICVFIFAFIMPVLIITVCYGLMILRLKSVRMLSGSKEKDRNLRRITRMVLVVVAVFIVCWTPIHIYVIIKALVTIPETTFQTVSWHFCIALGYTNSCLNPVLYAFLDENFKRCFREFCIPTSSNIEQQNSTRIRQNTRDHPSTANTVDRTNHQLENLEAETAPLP

| Structure (SMILES) | Maximum percentage of analgesia (MPE) 0.5 h [1] | Maximum percentage of analgesia (MPE) 1 h ([1]; n = 10, 0.7 mg/kg) | Maximum percentage of analgesia (MPE) 2 h ([1]; n = 10, 0.7 mg/kg) | Maximum percentage of analgesia (MPE) 3 h ([1]; n = 10, 0.7 mg/kg) | EC50 [2, 6] | Mean Expulsion Time [3] | Percent Maximum Possible Effect (Percent MPE) [3] | Expulsion Time Prolonging Rate (ETPR) [3] | EC50 [4, 7] | EC50 (MOR (Mu opioid Receptor); [8]) | EC50 against μ receptor relative to that of TRV130 (MOR (Mu opioid Receptor)) | AUC(0-t) [5] | Cmax [5] | Tmax [5] | half-life [5] | EC50 [2] | EC50 [4] | EC50 (MOR (Mu opioid Receptor)) | further results |
| --- | --- | --- | --- | --- | --- | --- | --- | --- | --- | --- | --- | --- | --- | --- | --- | --- | --- | --- | --- |
| c1ccc([C@]2(CCNCc3coc4ccc(O[C@@H]5CCOC5)cc34)CCOC3(CCCC3)C2)nc1 [Example 3] | 100.00% | 86.89±7.34% and 86.89% | 82.95±8.69% and 82.95% | 61.46±8.58% and 61.46% | 32.5 µM | 18.99 ± 6.55^※※♦♦ min | 12.91% | 373.57% | 56.8 µM | 0.56 nM | about 1/10 | 532 ± 50.6 ng·h/mL | 543 ± 72.8 ng/mL | 9 ± 1.2 min | 177 ± 20.4 min |  |  |  |  |
| c1ccc([C@]2(CCNCc3coc4ccccc34)CCOC3(CCCC3)C2)nc1 [Example 2] | 100.00% | 82.81±9.77% and 82.81% | 79.23±10.51% and 79.23% | 55.50±6.85% and 55.50% |  | 25.85 ± 5.88^※※♦ min | 18.83% | 544.64% |  |  | the same order of magnitude | 379 ± 63.1 ng·h/mL | 309 ± 43 ng/mL | 9 ± 0.6 min | 137 ± 7.8 min | 22.2 µM | 39.8 µM | 2.9 nM | EC50 against δ receptor relative to that of TRV130 ([2]; ratio of EC50 to TRV130): about 7 times; EC50 against κ receptor relative to that of TRV130 ([4]; ratio of EC50 to TRV130): about 7 times |
| COc1ccc2occ(CNCC[C@@]3(c4ccccn4)CCOC4(CCCC4)C3)c2c1 [Example 1] | 100.00% | 89.95±7.06% and 89.95% | 86.51±10.06% and 86.51% | 65.91±5.76% and 65.91% |  | 17.40 ± 5.84^※※♦♦ min | 11.55% | 333.92% |  |  | about 1/10 | 585 ± 25.9 ng·h/mL | 601 ± 32.5 ng/mL | 6.6 ± 3 min | 190.2 ± 1.2 min | 65.3 µM | 51.4 µM | 0.21 nM |  |
| COc1ccsc1CNCC[C@@]1(c2ccccn2)CCOC2(CCCC2)C1 [TRV130, oliceridine, reference compound] | 100.00% | 88.69% | 70.01% | 49.32% |  | 37.57 ± 4.31^※※ min | 28.93% | 836.91% |  |  |  | 319 ± 30.6 ng·h/mL | 235 ± 22.7 ng/mL | 8.4 ± 6 min | 56.4 ± 1.8 min | 3.14 µM | 5.77 µM |  | Maximum percentage of analgesia (MPE) 1 h [1, 9]: 88.69±1.52%; Maximum percentage of analgesia (MPE) 2 h [1, 9]: 70.01±8.01%; Maximum percentage of analgesia (MPE) 3 h [1, 9]: 49.32±7.12% |
| Fc1ccc([C@]2(CCNCc3ccccc3-c3ccncc3)CCOC3(CCCC3)C2)cc1 [Example 4] | 100.00% | 85.79±9.25% and 85.79% | 83.78±11.31% and 83.78% | 60.92±2.45% and 60.92% | 42.7 µM | 19.13 ± 3.93^※※♦♦ min | 13.04% | 377.06% | 54.5 µM | 4.5 nM | about 1/10 | 563 ± 31.8 ng·h/mL | 552 ± 48.7 ng/mL | 10.8 ± 1.8 min | 194 ± 6.6 min |  |  |  |  |
